Reference: patent publication US8895032B2, “Dendritic nano-antioxidants” (Central Michigan University, priority 2009, dated 2014)
Several values for one entry are separate records, joined by “and”; a condition that tells them apart may be missing. Identical values can stand only once.

Legend:
Format in all cases: biochemical
[1] = FRAP assay (reduction of Fe(III) to Fe(II)); parameters: Slope of ΔA593 versus concentration: unit not given here; details: for Slope of ΔA593 versus concentration: 37° C.
Description: The FRAP assay was performed as previously described (Pulido, et al. J. Agric. Food Chem. 2000, 48, 3396-3402, incorporated herein by reference in its entirety). In the FRAP assay, ferric was reduced by the antioxidant to ferrous via electron transfer (Benzie et al., Anal. Biochem. 1996, 239, 70-76, incorporated herein by reference in its entirety). This assay measured the redox potential of an antioxidant which is used as an estimate of antioxidant efficiency and expressed as a FRAP value. […] The compound 1 as well as the other antioxidants was dissolved in methanol. […] Reaction kinetics of the compound 1 and other antioxidants were obtained by plotting the change in slopes at various times and are shown in FIG. 18. […] This time-dependent increase in absorbance was previously reported (Pulido, et al. J. Agric. Food Chem. 2000, 48, 3396-3402, incorporated herein by reference in its entirety) and was especially significant with polyphenolic compounds. […] However, the FRAP value increased with time, reaching 2.5 in 60 min. […] J. Agric. Food Chem. 2000, 48, 3396-3402, incorporated herein by reference in its entirety). […] EC1 values, and therefore ferric reducing ability, were lower at longer reaction times as expected from the kinetic behavior of the antioxidants (Pulido, et al. J. Agric. Food Chem. 2000, 48, 3396-3402, incorporated herein by reference in its entirety).

[2] = test system: Human LDL; test: Protection of LDL from AAPH oxidation (agarose gel electrophoresis); details: 37° C.
[3] = test system: plasmid DNA pBR 322; test: Protection of plasmid DNA from AAPH damage (agarose electrophoresis); details: 10 mM AAPH, 37° C., 4 h

Compound: Cc1c(C)c2c(c(C)c1O)CCC(C)(C(=O)O)O2 (centres unmarked) [Trolox, 6-hydroxy-2,5,7,8-tetramethylchroman-2-carboxylic acid]
- Antioxidant Capacity Relative to Trolox, FRAP 5 min ([1]; 5 min): 1
- EC1 (concentration with ferric-TPTZ reducing ability equivalent to 1 mM FeSO4.7H2O) ([1]; 5 min): 450 µM
- FRAP value relative to Fe(II) ([1]; 5 min): 2.2
- FRAP value relative to Fe(II) ([1]; 15 min): 2.2
- FRAP value relative to Fe(II) ([1]; 30 min): 2.2
- Antioxidant Capacity Relative to Trolox, FRAP 60 min ([1]; 60 min): 1
- EC1 (concentration with ferric-TPTZ reducing ability equivalent to 1 mM FeSO4.7H2O) ([1]; 60 min): 449 µM
- FRAP value relative to Fe(II) ([1]; 60 min): 2.2
- Slope of ΔA593 versus concentration ([1]; Reaction time 5 min): 0.0268
- Slope of ΔA593 versus concentration ([1]; Reaction time 15 min): 0.0269
- Slope of ΔA593 versus concentration ([1]; Reaction time 30 min): 0.0269
- Slope of ΔA593 versus concentration ([1]; Reaction time 60 min): 0.0269
- FRAP value, did not change with time ([1]; testing period 60 min): 2.2
- protection of LDL at all antioxidant concentrations ([2]; 1-30 μM, 20 mM AAPH, 21 h): ineffective
- DNA protection at all concentrations used ([3]; 0.35-45 μM): ineffective

Compound: COc1cc(CN(Cc2ccc(CN(Cc3cc(OC)c(O)c(OC)c3)Cc3cc(OC)c(O)c(OC)c3)cc2)Cc2cc(OC)c(O)c(OC)c2)cc(OC)c1O [Compound 1]
- Antioxidant Capacity Relative to Trolox, FRAP 5 min ([1]; 5 min): 6.1
- EC1 (concentration with ferric-TPTZ reducing ability equivalent to 1 mM FeSO4.7H2O) ([1]; 5 min): 74 µM
- FRAP value relative to Fe(II) ([1]; 5 min): 13.5
- FRAP, times better than ascorbic acid ([1]; 5 min): 6.7 times
- Antioxidant Capacity Relative to Trolox, FRAP 5 min ([1]; 5 min, listed as compound 1): ~6 and 6.1
- FRAP ratio to syringaldehyde ([1]; 5 min, listed as compound 1): ~2.6 times and 2.7 times
- FRAP value relative to Fe(II) ([1]; 15 min): 14.6
- FRAP value relative to Fe(II) ([1]; 30 min): 15.1
- Antioxidant Capacity Relative to Trolox, FRAP 60 min ([1]; 60 min): 7.2
- EC1 (concentration with ferric-TPTZ reducing ability equivalent to 1 mM FeSO4.7H2O) ([1]; 60 min): 63 µM
- FRAP ratio to syringaldehyde ([1]; 60 min): 1.7 times
- FRAP value relative to Fe(II) ([1]; 60 min): 15.8
- FRAP, times better than ascorbic acid ([1]; 60 min): 6.5 times
- Antioxidant Capacity Relative to Trolox, FRAP 60 min ([1]; 60 min, listed as compound 1): ~7 and 7.2
- Slope of ΔA593 versus concentration ([1]; Reaction time 5 min): 0.163
- Slope of ΔA593 versus concentration ([1]; Reaction time 15 min): 0.175
- Slope of ΔA593 versus concentration ([1]; Reaction time 30 min): 0.182
- Slope of ΔA593 versus concentration ([1]; Reaction time 60 min): 0.190
- protection of LDL from AAPH free radicals (anodic migration) ([2]; 10 mM AAPH, 18 h): most efficient in protecting LDL
- only concentration effective in protecting LDL ([2]; 20 mM AAPH, 21 h): 30 µM
- DNA protection ([3]; 5 μM antioxidant): Some protection
- DNA protection (S band intensity) ([3]; 11-45 μM antioxidant): well protected
- DNA protection ([3]; below 5 μM antioxidant): No protection
